Measured values reported in patent publication US20090170865A1, “Treatment of Prostate Cancer with Angiogenesis-Targeting Quinazoline-Based Anti-Cancer Compounds” (University of Kentucky Research Foundation, priority 2007, published 2009).
Where two headings read alike, the source gives them in different places.

Columns and labels:
[1] = test system: endothelial and epithelial cell lines; experiment: Cell viability / cell death evaluation (MTT assay); assay type: cell-based, human
HUVEC = experiment: Tube formation assay (in vitro angiogenesis); assay type: cell-based, human; conditions: for vascular endothelial cell tube formation: 10 μmol/L, Matrigel, 24 hrs
PC-3 cells [2] = conditions: for apoptosis induction: 10 μmol/L, 24 h
Procedure: (§1) a) Hoechst Staining. Cells were plated in 6-well culture dishes at 5×10^4 cells per/well and at subconfluency were treated with increasing concentrations of DZ-1-23, -38, -40, -42, and -50 (0-25 μM). After 24 and 48 hrs of treatment, cells were fixed with 4% (w/v) paraformaldehyde (Sigma) and stained with 10 μg/mL Hoechst 33342 (B2261; Sigma) in the presence of 0.1% Triton X-100 (Sigma) as previously described. Cells were visualized using a Zeiss Axiovert S100 fluorescent microscope (Thornwood, N.Y.) with a UV filter (365 nm) and cells with condensed chromatin were designated apoptotic (100× magnification). The apoptotic index was determined by counting three random fields in duplicate wells per group. Each experiment was performed twice. b) MTT assay: Subconfluent cultures of cells were exposed to increasing concentrations of DZ-1-23, -38, -40, -42, and -50 (0-25 μM). After treatment the medium was replaced with 250 μl of MTT (Sigma) (1 mg/ml) and incubated at 37° C. to form blue crystals. After 2 hrs the MTT was removed and replaced with DMSO (250 μl) and incubated overnight at 37° C. The DMSO-crystal solution's absorbance was read at 540 nm in a microplate reader (Bio-Tek Instruments, Winooski, VM). Numerical data represent the average of three independent experiments performed in triplicate. Cell Migration Assay. (Wounding assay) Confluent monolayers of PC-3, DU-145, HUVEC, or HMVEC-L cells were wounded with a toothpick. After wounding, medium was changed and DZ-3 or DZ-50 (5 μM). After incubation for 12 or 24 hrs, wounding areas were examined under light microscopy (Axiovert 10, Zeiss). Cells that had migrated to the wounded areas were counted under a microscope for quantification of cell migration. Migration was calculated as the average number of cells observed in five random high power (400×) wounded fields/per well in duplicate wells. Tube Formation Assay: In vitro Angiogenesis Evaluation: In vitro formation of tubular structures was studied on extracellular matrix using an angiogenesis kit as described by the manufacturer (Chemicon International, Inc., Temecula, Calif.). HUVEC or HMVEC-L (10×10^4 cells/well) of 96-well-plates were seeded onto ECMatrigel-coated wells in the presence or absence of DZ-3 or DZ-50 and VEGF. Cells were treated with cytokines as single agents or each in combination (e.g. DZ-50 and VEGF).

[3] = data not shown
[4] = test system: PC-3 cells on HMVEC-L monolayer; conditions: 6 hrs of exposure, non-cytotoxic doses
Procedure: Sterile (12 mm diameter) glass coverslips were coated with Matrigel (Becton Dickson, Franklin Lakes, N.J.) at a dilution of 1:8 and air dried at room temperature (1 hr). Coverslips received approximately 6.25×10^4 HMVEC-L to form a complete monolayer. The cells were allowed to spread on the Matrigel for 24 hrs prior to the experiment. PC-3 cells were resuspended in EGM-2MV (Cambrex) and added to the HMVEC-L monolayer at a concentration of 8×10^3 cells/coverslip. Co-cultures were incubated at 37° C. at 5% CO2 for 3, 6, 9, 12, and 24 hrs. Prior to the addition of prostate epithelial cells, cells were incubated with the lipophilic tracer 1,1′-dioctadecyl-3,3,3′,3′-tetramethylindocarbocyanine perchlorate (DiI) (Invitrogen, Carlsbad, Calif.) for 20 min at 10 μg/ml to stain cell membranes. To label F-actin, PC-3 cells, or co-cultures of PC-3 cells HMVEC-L were fixed for 10 min at room temperature in 2% paraformaldehyde in PBS, and were permeabilized for 5 min with a buffer containing 15 mM Tris, 120 mM NaCl, 2 mM EDTA, 2 mM EGTA, and 0.5% Triton X-100 (pH 7.4). […] Coverslips were mounted with Vectashield (Vector Laboratories, Burlington, Canada) on glass slides and analyzed with confocal microscopy.

DU-145 cells [5] = conditions: non-cytotoxic doses 5 and 10 μM
Procedure: as §1

[6] = test system: HUVEC, HMVEC-L vascular endothelial cells; conditions: non-cytotoxic doses 5 and 10 μM
Procedure: as §1

integrin β1 = conditions: 10 μmol/L
Procedure: (§2) FACS—Flow Cytometric Analysis: PC-3 cells were treated with DZ-50 (10 μM) and harvested with 0.5 mM EDTA solution. Prostate cancer epithelial cells were then incubated with hanks balanced salt solution (HBSS) supplemented with 2% BSA and 0.01% sodium azide for 30 min at 4° C. Cells were subsequently fixed in 4% (w/v) formaldehyde, washed, and incubated with the designated integrin antibody followed by FITC-conjugated goat anti-mouse secondary. Analysis was performed on a Partec FlowMax (Partec, Munster, Germany).

[7] = test system: integrins α2, α3, αV, and β3; conditions: PC-3 cells, data not shown
Procedure: as §2

[8] = test system: DU-145 human prostate cancer xenografts; conditions: for CD31+ (vascularity) / Ki67 (proliferation index), % / TUNEL (apoptotic index): DU-145 xenograft
Procedure: (§3) Tumorigenicity Studies. Human prostate cells (PC-3 and DU-145) suspended in PBS, were inoculated subcutaneously (s.c.) (2.5×10^6 cells/site) in the flank of male nude mice, 4-6 weeks of age. Tumors were measured every 48 hrs with a digital caliber, and tumor volumes were calculated using the formula length×(width)^2/2. When tumors reached ≈50 mm^3 mice were stratified into treatment groups of 6 mice/treatment. DZ-50 was administered at doses of 50, 100, and 200 mg/kg in 0.5% methylcellulose (w/v)+0.1% Tween-80 (v/v) in water, by oral gavage using a 22-gauge, 1.5-inch gavage needle. Animals were sacrificed after 2 wks of treatment unless otherwise indicated. In a separate experiment human prostate cells (PC-3) were inoculated as described above and dosing began (200 mg/kg) concurrently for 2 wks. Upon termination of the experiment, tumors were surgically excised and tissue specimens were fixed in a 10% (v/v) formalin solution (Sigma) and subsequently embedded in Paraplast X-tra paraffin (VWR). Blocks were sectioned (6 μm) on a Finesse Microtome (ThermoShandon, UK).
(§4) Spontaneous Metastasis Assay: Human prostate cells (PC-3) were injected (2×10^6 cells/80 μl of PBS) in the tail vein of male nude mice, 4-6 wks of age; mice were maintained in a pathogen-free environment. At 10 days post-inoculation, 200 mg/kg of DZ-50 was given daily (via oral gavage as described above). After 2 wks of treatment, DZ-50 treated and vehicle control mice were sacrificed and lungs, spleen, kidneys, and prostate organs were excised and subjected to examination for metastatic tumor lesions. Apoptosis Evaluation Apoptotic cells were detected using the ApopTago Peroxidase In Situ Apoptosis Kit (Chemicon, Temecula, Calif.). Briefly, paraffin-embedded sections were treated with Proteinase K (Dako, Carpinteria, Calif.) and were subsequently incubated with terminal deoxynucleotidyl transferase enzyme. Terminal deoxynucleotidyl transferase-mediated deoxyuridine triphosphate nick end labeling (TUNEL)-positive cells were counted in five different fields (400×) and the apoptotic index was determined based on the number of apoptotic cells over the total number of cells. Vascularity Evaluation: CD31 staining was performed for endothelial cells using enzymatic digestion with Proteinase K (Dako). The primary antibody used was the mouse anti-human CD31 specific for endothelial cells from Dako (overnight incubation at 4° C.). CD31-positive endothelial cells were counted in five different fields (400×). Cell Proliferation Cell proliferation index was evaluated on the basis of Ki67 nuclear antigen immunoreactivity. Following antigen retrieval slides were incubated with an antibody directed against the Ki67 nuclear antigen (AMAC, Westbrook, Mass.). Ki67+ cells were counted from five different fields (400×).

[9] = test system: PC-3 human prostate cancer xenografts; conditions: for CD31+ (vascularity) / Ki67 (proliferation index), % / TUNEL (apoptotic index): PC-3 xenograft
Procedure: as §3, §4

[10] = test system: PC-3 cells injected in the tail vein; conditions: 200 mg/kg p.o. from 10 d postinoculation, 21 days of treatment, vs untreated control mice
Procedure: as §4, with “Vascularity Evaluation: CD31 staining was performed for endothelial cells using enzymatic digestion with Proteinase K (Dako). The primary antibody used was the mouse anti-human CD31 specific for endothelial cells from Dako (overnight incubation at 4° C.).” left out, “Following antigen retrieval slides were incubated with an antibody directed against the Ki67 nuclear antigen (AMAC, Westbrook, Mass.).” left out

[11] = test system: CAM blood vessel development; conditions: 48 hrs, with VEGF or bFGF
Procedure: Fertilized chicken eggs were incubated at 37° C. At E8 a window was created to allow visualization of the egg shell membrane. 6 mm blank paper discs (BD) were placed on the egg shell membrane along with VEGF (100 ng) or bFGF (100 ng) and DZ-50. The windows were sealed with porous adhesive and allowed to incubate 48 hrs. At E10 the adhesive was removed along with the egg shell membrane to expose the CAM and 4% paraformaldehyde was added. Following excision the number of vessels per CAM was quantified by counting under a dissecting microscope.

DU-145 cells [12] = test system: DU-145 cells
Procedure: (§5) Prostate cancer cells PC-3 and DU-145 cells were treated for 3, 6, 9, 12, or 15 hrs with DZ-50 (5 μM) and harvested. 5×10^4 cells were added to each well of a 6-well culture dish coated with either collagen or fibronectin and incubated for 30 min at 37° C. Following incubation cells were fixed and the number of cells/well recorded. Numerical data represent the average of three independent experiments in triplicate.

PC-3 cells [13] = conditions: 6, 9, and 12 h exposure, 5 and 10 μmol/L
Procedure: as §5

## COc1cc2nc(N3CCN(S(=O)(=O)c4c(C(C)C)cc(C(C)C)cc4C(C)C)CC3)nc(N)c2cc1OC [DZ-10, 2-[4-(2,4,6-triisopropylbenzenesulfonyl)-piperazin-1-yl]-6,7-dimethoxyquinazolin-4-yl-amine]
[1]; negative control compound of the tube formation assay
  effect on cell viability: no effect on cell viability
HUVEC
  vascular endothelial cell tube formation: does not change the ability of HUVEC cells to form multibranched tubular networks

## COc1cc2nc(N3CCN(S(=O)(=O)c4ccc(-c5ccccc5)cc4)CC3)nc(N)c2cc1OC [DZ-3]
PC-3 cells [2]
  apoptosis induction: trigger apoptotic cell death

## CC(C)Oc1cc2nc(N3CCN(S(=O)(=O)c4ccc(-c5ccccc5)cc4)CC3)nc(N)c2cc1OC(C)C [DZ-50]
[3]; compared to control animals
  gross and histological examination of lung, liver, spleen, and prostate: no apparent changes
[3]
  animal's behavioral pattern and weight: no change
[1]; PC-3 and HMVEC-L cells, 10M, first 24 hrs of treatment
  cell viability/cell death: no effect on cell viability/cell death
[1]; endothelial and epithelial cell lines, 24 and 48 hrs, 5-25 μmol/L
  cell viability: reduced cell viability
[4]
  attachment of tumor epithelial cells to an endothelial monolayer: significantly inhibited
DU-145 cells [5]
  prostate cancer epithelial cell migration (DU-145): significant inhibition
PC-3 cells [2]
  apoptosis induction: not effective at inducing apoptosis
PC-3 cells [2]; non-cytotoxic doses 5 and 10 μM
  prostate cancer epithelial cell migration (PC-3): significant inhibition
[6]
  endothelial cell migration: significant inhibition
HUVEC; 10 μmol/L with VEGF
  tube formation in the presence of VEGF: VEGF cannot reverse the antiangiogenic effect
HUVEC
  vascular endothelial cell tube formation: significantly inhibited
Integrin β1; DU-145 cells, 12 h
  integrin β1 expression intensity: significantly smaller shift
Integrin β1; PC-3 cells, 12-24 hrs
  integrin β1 surface expression: undetectable
[7]
  surface expression of integrins α2, α3, αV, and β3: did not effect the surface expression
[8]; 100 mg/kg
  CD31+ (vascularity): 15.1 ± 0.7
  Ki67 (proliferation index), %: 53.9%
  TUNEL (apoptotic index): 3.5 ± 1.0
[8]; 200 mg/kg
  CD31+ (vascularity): 10.1 ± 0.4
  Ki67 (proliferation index), %: 49.7%
  TUNEL (apoptotic index): 3.4 ± 1.2
[8]; DU-145 xenografts, 200 mg/kg p.o., 14 d after palpable tumor formation
  tumor volume: significant reduction in tumor volume
[9]; PC-3 inoculation with simultaneous treatment, 200 mg/kg p.o., 2 wks
  prostate tumor development (growth initiation): dramatically suppressed
[9]; 100 mg/kg
  CD31+ (vascularity): 13.5 ± 1.9
  Ki67 (proliferation index), %: 42.6%
  TUNEL (apoptotic index): 2.0 ± 0.8
[9]; 200 mg/kg
  CD31+ (vascularity): 6.5 ± 0.6
  Ki67 (proliferation index), %: 45.0%
  TUNEL (apoptotic index): 1.4 ± 0.4
[9]; PC-3 xenografts, 200 mg/kg p.o., 14 d after palpable tumor formation
  tumor volume: significant reduction in tumor volume
[10]
  number of metastatic foci to the lungs: significant reduction
[11]
  angiogenesis/vascularity (number of blood vessels per CAM): significant suppression of angiogenesis/vascularity
DU-145 cells [12]
  attachment of DU-145 cells to fibronectin or collagen: neither fibronectin nor collagen, was significantly inhibited
PC-3 cells [13]
  attachment of PC-3 cells to fibronectin or collagen: reduced the ability of PC-3 cells to attach to either fibronectin or collagen, but this effect was not statistically significant
